Data from patent publication US20060142337A1, “Piperidine derivative and use thereof” (priority 2004, published 2006).
Where a name gives a salt, the structure may show the parent alone.

Each compound was assayed against T1, substance P receptor (Homo sapiens, UniProt P25103) (assay: Radioligand receptor binding inhibitory activity using receptor from human lymphoblast cells (IM-9)). Details: [125I]-BHSP binding, receptor from IM-9 cells, 25 C, 30 min.
T1 construct: endogenous in cells; host or cells: IM-9 human lymphoblast cells (membrane preparation)
Procedure: Radioligand receptor binding inhibitory activity (Binding inhibitory activity using receptor from human lymphoblast cells (IM-9))
The method of M. A. Cascieri et al., “Molecular Pharmacology 42, p. 458 (1992)” was modified and used. The receptor was. prepared from human lymphoblast cells (IM-9). IM-9 cells (2×10^5 cells/mL) were incubated for 3 days (one liter), which was then subjected to centrifuge for 5 min. at 500×G to obtain cell pellets. The obtained pellets were washed once with phosphate buffer (Flow Laboratories, CAT. No. 28-103-05), which were then homogenized using Polytron homogenizer (“Kinematika”, Germany) in 30 mL of 50 mM Tris-HCl buffer (pH 7.4) containing 120 mM sodium chloride, 5 mM potassium chloride, 2 μg/mL chymostatin, 40 μg/mL bacitracin, 5 μg/mL phosphoramidon, 0.5 mM phenylmethylsulfonyl fluoride, 1 mM ethylenediamine tetra-acetate, which was subjected to centrifuge at 40,000×G for 20 min. The residue was washed twice with 30 mL of the buffer, which was then preserved frozen (−80° C.) as a specimen of the receptor.
The specimen was suspended in a reaction buffer (50 mM Tris-HCl buffer (pH 7.4), 0.02% bovine serum albumin, 1 mM phenylmethylsulfonyl fluoride, 2 μg/mL chymostatin, 40 μg/mL bacitracin and 3 mM manganese chloride) to have protein in the concentration of 0.5 mg/mL of protein and 100 μL portion of the suspension was used in the reaction. After addition of the sample and ^125]-BHSP (0.46 KBq), the reaction was allowed to proceed in 0.2 mL of reaction buffer at […] for 30 min. The amount of nonspecific binding was determined by adding substance P at a final concentration of 2×10^−6 M.
After the reaction, using a cell harvester (290 PHD, Cambridge Technology, Inc, U.S.A.), filtration was carried out through a glass filter (GF/B, Whatman, U.S.A.), which was immersed in 0.1% polyethyleneimine for 24 hrs. and dried. After washing three times with 250 μL of 50 mM Tris-HCl buffer (pH 7.4) containing 0.02% bovine serum albumin, the radioactivity remaining on the filter was. determined with a gamma counter.
The antagonistic activity of each compound obtained in Examples was determined in terms of the concentration necessary to cause 50% inhibition (IC50 value) under the above-described conditions, and the results were shown in Table 14.
The radio ligand means substance P labeled with [^125I].

T1 sequence (P25103 whole entry): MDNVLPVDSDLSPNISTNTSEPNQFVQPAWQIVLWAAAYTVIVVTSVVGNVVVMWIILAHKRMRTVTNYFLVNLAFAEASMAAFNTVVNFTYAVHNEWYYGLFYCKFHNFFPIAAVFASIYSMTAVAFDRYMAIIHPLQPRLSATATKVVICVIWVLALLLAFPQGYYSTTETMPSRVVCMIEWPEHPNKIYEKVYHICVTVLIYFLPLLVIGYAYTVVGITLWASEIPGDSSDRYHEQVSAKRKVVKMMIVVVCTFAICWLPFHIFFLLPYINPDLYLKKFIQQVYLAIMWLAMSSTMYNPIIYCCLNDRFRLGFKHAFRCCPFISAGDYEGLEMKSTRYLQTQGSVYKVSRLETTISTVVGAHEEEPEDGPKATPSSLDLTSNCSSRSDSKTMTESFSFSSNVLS

SMILES	IC50 [nM]
CC(=O)N1CCC(NC(=O)N2CC[C@H](O[C@H](C)c3cc(C(F)(F)F)cc(C(F)(F)F)c3)[C@H](c3ccccc3)C2)CC1 [Example 71, (3R,4S)-N-(1-acetylpiperidin-4-yl)-4-[(1R)-1-[3,5-bis(trifluoromethyl)phenyl]ethoxy]-3-phenylpiperidine-1-carboxamide]	0.094
COc1ccc(-n2nnnc2C(F)(F)F)cc1C(C)N[C@H]1CCN(C(=O)CNC(C)=O)C[C@H]1c1ccccc1 (single isomer, unassigned) [Example 85]	0.09
CCNC(=O)[C@H]1CC[C@H](C(=O)N2CC[C@H](O[C@H](C)c3cc(C(F)(F)F)cc(C(F)(F)F)c3)[C@H](c3ccccc3)C2)CC1 [Example 69, trans-4-[[(3R,4S)-4-[(1R)-1-[3,5-Bis(trifluoromethyl)phenyl]ethoxy]-3-phenylpiperidin-1-yl]carbonyl]-N-ethylcyclohexanecarboxamide]	0.099
CC(=O)NC1CCN(C(=O)N2CC[C@H](O[C@H](C)c3cc(C(F)(F)F)cc(C(F)(F)F)c3)[C@H](c3ccccc3)C2)CC1 [Example 73, N-[1-[[(3R,4S)-4-[(1R)-1-[3,5-bis(trifluoromethyl)phenyl]ethoxy]-3-phenylpiperidin-1-yl]carbonyl]piperidin-4-yl]acetamide]	0.097
C[C@@H](O[C@H]1CCN(C(=O)[C@H]2CC[C@H](NC(=O)c3cccs3)CC2)C[C@H]1c1ccccc1)c1cc(C(F)(F)F)cc(C(F)(F)F)c1 [Example 51, N-[trans-4-[[(3R,4S)-4-[(1R)-1-[3,5-Bis(trifluoromethyl)phenyl]ethoxy]-3-phenylpiperidin-1-yl]carbonyl]cyclohexyl]thiophene-2-carboxamide]	0.077
C[C@@H](O[C@H]1CCN(C(=O)[C@H]2CC[C@H](NC(=O)CCCCCl)CC2)C[C@H]1c1ccccc1)c1cc(C(F)(F)F)cc(C(F)(F)F)c1 [Example 59, N-[trans-4-[[(3R,4S)-4-[(1R)-1-[3,5-Bis(trifluoromethyl)phenyl]ethoxy]-3-phenylpiperidin-1-yl]carbonyl]cyclohexyl]-5-chloropentanamide]	0.087
CC(=O)N[C@H]1CC[C@@H](C(=O)N2CC[C@H](O[C@H](C)c3cc(C(F)(F)F)cc(C(F)(F)F)c3)[C@H](c3ccccc3)C2)CC1 [Example 54, N-[cis-4-[[(3R,4S)-4-[(1R)-1-[3,5-Bis(trifluoromethyl)phenyl]ethoxy]-3-phenylpiperidin-1-yl]carbonyl]cyclohexyl]acetamide]	0.075
CC(C)NC(=O)N[C@H]1CC[C@H](C(=O)N2CC[C@H](O[C@H](C)c3cc(C(F)(F)F)cc(C(F)(F)F)c3)[C@H](c3ccccc3)C2)CC1 [Example 65, N-[trans-4-[[(3R,4S)-4-[(1R)-1-[3,5-Bis(trifluoromethyl)phenyl]ethoxy]-3-phenylpiperidin-1-yl]carbonyl]cyclohexyl]-N′-isopropylurea]	0.099
COC(=O)N[C@H]1CC[C@H](C(=O)N2CC[C@H](O[C@H](C)c3cc(C(F)(F)F)cc(C(F)(F)F)c3)[C@H](c3ccccc3)C2)CC1 [Example 61, Methyl trans-4-[[(3R,4S)-4-[(1R)-1-[3,5-bis(trifluoromethyl)phenyl]ethoxy]-3-phenylpiperidin-1-yl]carbonyl]cyclohexylcarbamate]	0.098
CCC(=O)N1CCC(NC(=O)N2CC[C@H](O[C@H](C)c3cc(C(F)(F)F)cc(C(F)(F)F)c3)[C@H](c3ccccc3)C2)CC1 [Example 72, (3R,4S)-4-[(1R)-1-[3,5-Bis(trifluoromethyl)phenyl]ethoxy]-3-phenyl-N-(1-propionylpiperidin-4-yl)piperidine-1-carboxamide]	0.091
C[C@@H](O[C@H]1CCN(C(=O)CC2NC(=O)NC2=O)C[C@H]1c1ccccc1)c1cc(C(F)(F)F)cc(C(F)(F)F)c1 (stereo partly drawn) [Example 78, 5-[2-[(3R,4S)-4-[(1R)-1-[3,5-Bis(trifluoromethyl)phenyl]ethoxy]-3-phenylpiperidin-1-yl]-2-oxoethyl]imidazolidine-2,4-dione]	0.096
C[C@@H](O[C@H]1CCN(C(=O)C2CC(=O)NC(=O)C2)C[C@H]1c1ccccc1)c1cc(C(F)(F)F)cc(C(F)(F)F)c1 [Example 76, 4-[[(3R,4S)-4-[(1R)-1-[3,5-Bis(trifluoromethyl)phenyl]ethoxy]-3-phenylpiperidin-1-yl]carbonyl]piperidine-2,6-dione]	0.084

The next compounds have a lower IC50 than those just listed; values first:

IC50 [nM]	SMILES
0.032	C[C@@H](O[C@H]1CCN(C(=O)C2CCN(C(=O)Cn3cnnn3)CC2)C[C@H]1c1ccccc1)c1cc(C(F)(F)F)cc(C(F)(F)F)c1 [Example 39, (3R,4S)-4-[(1R)-1-[3,5-Bis(trifluoromethyl)phenyl]ethoxy]-3-phenyl-1-[[1-(1H-tetrazol-1-ylacetyl)piperidin-4-yl]carbonyl]piperidine]
0.043	C[C@@H](O[C@H]1CCN(C(=O)C2CCN(C3CCOC3=O)CC2)C[C@H]1c1ccccc1)c1cc(C(F)(F)F)cc(C(F)(F)F)c1 (single isomer, unassigned) [Example 35, hydrochloride]
0.061	C[C@@H](O[C@H]1CCN(C(=O)[C@H]2CC[C@H](NC(=O)C3CC3)CC2)C[C@H]1c1ccccc1)c1cc(C(F)(F)F)cc(C(F)(F)F)c1 [Example 46, N-[trans-4-[[(3R,4S)-4-[(1R)-1-[3,5-Bis(trifluoromethyl)phenyl]ethoxy]-3-phenylpiperidin-1-yl]carbonyl]cyclohexyl]cyclopropanecarboxamide]
0.062	C[C@@H](O[C@H]1CCN(C(=O)C2CC(=O)N(C)C(=O)C2)C[C@H]1c1ccccc1)c1cc(C(F)(F)F)cc(C(F)(F)F)c1 [Example 77, 4-[[(3R,4S)-4-[(1R)-1-[3,5-Bis(trifluoromethyl)phenyl]ethoxy]-3-phenylpiperidin-1-yl]carbonyl]-1-methylpiperidine-2,6-dione]
0.05	CC(C)C(=O)N[C@H]1CC[C@H](C(=O)N2CC[C@H](O[C@H](C)c3cc(C(F)(F)F)cc(C(F)(F)F)c3)[C@H](c3ccccc3)C2)CC1 [Example 45, N-[trans-4-[[(3R,4S)-4-[(1R)-1-[3,5-Bis(trifluoromethyl)phenyl]ethoxy]-3-phenylpiperidin-1-yl]carbonyl]cyclohexyl]-2-methylpropanamide]
0.053	CCCC(=O)N[C@H]1CC[C@H](C(=O)N2CC[C@H](O[C@H](C)c3cc(C(F)(F)F)cc(C(F)(F)F)c3)[C@H](c3ccccc3)C2)CC1 [Example 44, N-[trans-4-[[(3R,4S)-4-[(1R)-1-[3,5-Bis(trifluoromethyl)phenyl]ethoxy]-3-phenylpiperidin-1-yl]carbonyl]cyclohexyl]butanamide]
0.02	C[C@@H](O[C@H]1CCN(C(=O)C2CCN(C(=O)Cn3cncn3)CC2)C[C@H]1c1ccccc1)c1cc(C(F)(F)F)cc(C(F)(F)F)c1 [Example 119, (3R,4S)-4-{(1R)-1-[3,5-Bis(trifluoromethyl)phenyl]ethoxy}-3-phenyl-1-([1-(1H-1,2,4-triazol-1-ylacetyl)piperidin-4-yl]carbonyl}piperidine]
0.021	C[C@@H](O[C@H]1CCN(C(=O)C2CCN(C(=O)Cn3cccn3)CC2)C[C@H]1c1ccccc1)c1cc(C(F)(F)F)cc(C(F)(F)F)c1 [Example 122, (3R,4S)-4-{(1R)-1-[3,5-Bis(trifluoromethyl)phenyl]ethoxy}-3-phenyl-1-{[1-(1H-pyrazol-1-ylacetyl)piperidin-4-yl]carbonyl}piperidine]
0.055	C[C@@H](O[C@H]1CCN(C(=O)[C@H]2CC[C@H](NS(C)(=O)=O)CC2)C[C@H]1c1ccccc1)c1cc(C(F)(F)F)cc(C(F)(F)F)c1 [Example 49, N-[trans-4-[[(3R,4S)-4-[(1R)-1-[3,5-Bis(trifluoromethyl)phenyl]ethoxy]-3-phenylpiperidin-1-yl]carbonyl]cyclohexyl]methanesulfonamide]
0.023	CC(=O)N[C@H]1CC[C@H](C(=O)N2CC[C@H](O[C@H](C)c3cc(C(F)(F)F)cc(C(F)(F)F)c3)[C@H](c3ccccc3)C2)CC1 [Example 42, N-[trans-4-[[(3R,4S)-4-[(1R)-1-[3,5-Bis(trifluoromethyl)phenyl]ethoxy]-3-phenylpiperidin-1-yl]carbonyl]cyclohexyl]acetamide]
0.036	CNC(=O)N[C@H]1CC[C@H](C(=O)N2CC[C@H](O[C@H](C)c3cc(C(F)(F)F)cc(C(F)(F)F)c3)[C@H](c3ccccc3)C2)CC1 [Example 47, N-[trans-4-[[(3R,4S)-4-[(1R)-1-[3,5-Bis(trifluoromethyl)phenyl]ethoxy]-3-phenylpiperidin-1-yl]carbonyl]cyclohexyl]-N′-methylurea]
